Literature values in patent US20030049260A1, “Method of improving cognitive function” (priority 2001, published 2003).

Details: for Change in Symbol Digit: max. increase: duration 12 weeks, An J Geriatr Psychiatry 1999;7:221-227

For `CC(C)NCC(O)COc1cccc2ccccc12` (stereo not drawn) [Propranolol], the “Change in Symbol Digit: decline as compared to placebo” value (duration 8 hours, Br. J. Clin Pharmac 1984;17:31-36) is given as 10-15% decline.
In the case of `CNCCC(Oc1ccc(C(F)(F)F)cc1)c1ccccc1` (stereo not drawn) [Fluoxetine], the “Change in Symbol Digit: max. increase” value is listed as 10% increase.
For `CN[C@H]1CC[C@@H](c2ccc(Cl)c(Cl)c2)c2ccccc21` [Sertraline], the “Change in Symbol Digit: max. increase” value is given as 21% increase.
In the case of `Cc1nnc2n1-c1ccc(Cl)cc1C(c1ccccc1Cl)=NC2` [Triazolam], the “Change in Symbol Digit: reduction” value (in vivo) is given as 10-20% reduction.
In the case of `CN[C@@H](C)Cc1ccccc1` [Methamphetamine], the “Change in Symbol Digit: reduction in drug group as compared to a control group” value (in vivo) is listed as “Significant 14%”.
For `CNC1(c2ccccc2Cl)CCCCC1=O` (stereo not drawn) [Ketamine], the “Change in Symbol Digit: decline” value (in vivo) is listed as 5-10% decline.
